“Also recorded” adds a separate entry of the source.
Experiments:
CRTC3 = CRTC3 nuclear translocation (immunofluorescence, live imaging); format: cell-based; details: WT CRTC3
Description: FIGS. 15A to 15C. SIK inhibitors induce the dephosphorylation of CRTC3 at Ser62, Ser162, Ser329 and Ser370 and its translocation to the nucleus. (FIG. 15A) HEK293 cells were transfected with FLAG-CRTC2, FLAG-CRTC3 or FLG-CRTC3[S162A]. Aliquots of the cell extracts were subjected to SDS-PAGE and immunoblotting using an antibody that recognizes CRTC2 phosphorylated at Ser171. […] (FIG. 15B) HEK293 cells were transfected with FLAG-CRTC3, FLAG-CRTC3[S62A/S162A/S329A/S370A] (termed CRTC3-4A) or with empty vector (FLAG-ev). […]. (FIG. 15C) Inhibition of SIKs promotes the translocation of endogenous CRTC3 to the nucleus. […].
RAW264.7 cells were grown on glass coverslips and treated with inhibitors for 1 h. Cells were then fixed for 10 min in 3.7% paraformaldehyde, permeabilized for 5 min using 0.1% Triton X-100 in PBS and blocked for 45 min using 3% BSA in PBS. Cells were stained with anti-CRTC3 (Abcam 1:200) and anti-α-tubulin (Santa Cruz 1:500) followed by anti-rabbit-alexa488 and anti-mouse-alexa594 (Invitrogen 1:500), respectively. Antibodies were diluted in blocking buffer and incubated with the cells for 45 min. […] Images were recorded every 30 s for 1.5 min prior to the addition of drug after which cells were imaged for a further 60 min.

[1] = system: TLR-stimulated macrophages; assay: qPCR of CREB-dependent gene mRNA in TLR-stimulated macrophages; format: cell-based, mouse; details: for Nurr77 mRNA: LPS-stimulated macrophages; for IL-10 mRNA: TLR/LPS-stimulated macrophages
Method: Bone-marrow derived macrophages were differentiated for 7 days in DMEM supplemented with 5 ng/ml recombinant M-CSF (R&D systems), 2 mM glutamine, 10% foetal calf serum, penicillin and streptomycin. […]
mRNA was extracted from macrophages using the RNeasy Micro Kit following the manufacturers' instructions (Qiagen). cDNA was generated from 1 μg of total RNA using the iScript cDNA synthesis kit and quantified by qPCR using the SsoFast EvaGreen Supermix on a CFX96 real time system (Bio-Rad Laboratories). The relative expression of each gene was calculated from Ct values using the Pfaffl method^30 and was normalized against the mRNA levels of 18S RNA. The following primers were used: IL-10-F, […]; IL-10-R, […]; c-Fos-F, […]; c-Fos-R, […]; nurr1-F, […]; nurr1-R, […]; nurr77-F, […]; nurr77-R, […]; 18S-F, […]; 18S-R, […]; IL-1ra-F, […]; IL-1ra-R, […]; SPHK1-F, […]; SPHK1-R, […]; LIGHT-F, […]; LIGHT-R, […]; ArgI-F, […]; ArgI-R, […]; IFN-F, […]; IFNγ-R, […].
[…]. Biochem J 434:93-104) using the indicated antibodies. RNA was extracted using the RNeasy Micro Kit (Qiagen). cDNA was generated using the iScript cDNA synthesis kit and quantified by qPCR using the SsoFast EvaGreen Supermix (Bio-Rad Laboratories). The relative expression of each gene was calculated from Ct values using the Pfaffl method (Pfaffl M W (2001) A new mathematical model for relative quantification in real-time RT-PCR. Nucleic Acids Res 29:e45) and was normalized against the mRNA levels of 18S or GAPDH RNA. Fold-induction for each gene was reported relative to untreated control cells, which was set to 1. The concentrations of TNFα, IL-6, IL-10, IL-12p40, and RANTES in culture supernatants were measured using the Bio-Plex Pro Assay system from Bio-Rad. Further details in supplementary information.
(§1) mRNA was extracted from cells using the RNeasy Micro Kit following the manufacturers' instructions (Qiagen). cDNA was generated from 1 μg of total RNA using the iScript cDNA synthesis kit and quantified by qPCR using the SsoFast EvaGreen Supermix on a CFX96 real time system (Bio-Rad Laboratories). The relative expression of each gene was calculated from Ct values using the Pfaffl method (5) and was normalized against the mRNA levels of 18S RNA or GAPDH. Results are reported relative to untreated control cells, which was set to 1. The following primers were used: […]

[2] = system: LPS-stimulated macrophages; assay: Cytokine secretion in TLR-stimulated bone-marrow derived macrophages; format: cell-based, mouse
Method: Bone-marrow derived macrophages were differentiated for 7 days in DMEM supplemented with 5 ng/ml recombinant M-CSF (R&D systems), 2 mM glutamine, 10% foetal calf serum, penicillin and streptomycin.
Following stimulation with ligands, the cell culture medium was removed, clarified by centrifugation for 10 min at 14000×g and the concentration of TNFα, IL-6, IL-10, IL-12p40, and RANTES were measured using the Bio-Plex Pro Assay system from Bio-Rad. IFNβ was measured using an ELISA kit from R&D Systems according to the manufacturers' instructions.
RNA was extracted using the RNeasy Micro Kit (Qiagen). cDNA was generated using the iScript cDNA synthesis kit and quantified by qPCR using the SsoFast EvaGreen Supermix (Bio-Rad Laboratories). […] Fold-induction for each gene was reported relative to untreated control cells, which was set to 1. The concentrations of TNFα, IL-6, IL-10, IL-12p40, and RANTES in culture supernatants were measured using the Bio-Plex Pro Assay system from Bio-Rad. Further details in supplementary information.
Following stimulation with ligands, the cell culture medium was removed, clarified by centrifugation for 10 min at 14000×g and the concentration of TNFα, IL-6, IL-10, IL-12p40 and RANTES were measured using the Bio-Plex Pro Assay system from Bio-Rad. IL-1ra and IFNβ were measured using ELISA kits from R&D Systems.

IKK-related kinases = details: previously reported; cited from earlier work
MARK isoforms = details: previously reported; cited from earlier work
NUAK isoforms = details: previously reported; cited from earlier work
[3] = Drug metabolism and pharmacokinetic properties; details: compared with MRT67307
LPS-injected mice = assay: Cytokine levels in serum of LPS-challenged mice; format: in vivo, mouse
Method: C57BL/6 mice (8-12 week old male mice) were injected with vehicle control or 0-30 mg/kg of MRT68771. After 30 min, LPS was introduced by intraperitoneal injection (3.5 mg/kg). One hour later, the mice were sacrificed and the concentrations of TNFα, IL-10 and IFNβ in the sera were measured as described above.

SIK isoforms = assay: Kinase assays, SIK isoforms; format: biochemical; details: in vitro
LKB1−/− cells = assay: CREB-dependent gene transcription in IL-1 stimulated LKB1+/+ and LKB1−/− MEFs; format: cell-based, mouse
AMPK-related kinases = format: biochemical; details: members of the AMPK subfamily other than SIKs
Method: (§2) Recombinant SIK1, SIK2, SIK3 were expressed as GST-fusion proteins in HEK293 cells and purified on a glutathione-Sepharose column. […] FLAG-CRTC3 was immunoprecipitated using anti-FLAG M2 agarose, washed in kinase buffer (50 mM Tris/HCl pH 7.4, 10 mM Mg acetate, 0.1 mM EGTA, 2 mM DTT) and reactions initiated by adding 4 U/ml recombinant kinase with 0.1 mM ATP (specific activity 3000 cpm/pmol). Phosphorylation of CRTC3 was monitored by autoradiography as well as immunoblotting using phosphospecific antibodies raised against Ser162, Ser329 and Ser370. […] Kinase profiling was performed as previously described (7) and performed by the International Centre for Kinase Profiling (www.kinase-screen.mrc.ac.uk).

LPS-stimulated BMDMs = assay: Expression of macrophage markers in LPS-stimulated BMDMs (qPCR); format: cell-based, mouse
Method: FIGS. 10A to 10E. Inhibition of the LKB1-SIK-CRTC3-IL10 signaling axis drives the expression of markers of regulatory macrophages. (FIG. 10A) Effect of SIK inhibitors on the LPS-stimulated expression of LIGHT, SPHK1, Arg1 and IL-1ra (n=4, mean±SD). […] (FIG. 10C) Elevated expression of markers of regulatory macrophage in LKB1−/− macrophages. BMDMs were generated from LysM-Cre/LKB1+/+ and LysM-Cre/LKB1flox/flox mice and stimulated with 100 ng/ml LPS (mean±SD, n=3). (FIG. 10D) CRTC3 is required for the induction of markers of regulatory macrophages. […] LIGHT and SPHK1 mRNA was measured at 2 h and Arg1 at 8 h post-LPS stimulation (mean±SD, n=4). […] The experiment was carried out as in (FIG. 10D) except that BMDMs were generated from IL-10+/+ and IL-10−/− mice (mean±SD, n=4).
as §1

[4] = system: protein kinases that possess a threonine residue at the gatekeeper site (Src, Lck, Yes, BTK, FGF and Ephrin receptors); assay: Kinase profiling, kinases with threonine at the gatekeeper site; format: biochemical; details: kinase panel; 1 μM KIN112, 0.1 μM HG-9-91-01
Method: as §2

CC1(C)C(=O)N([C@H]2CCc3c(O)cccc32)c2nc(Nc3cccc(CN4CCCC4)c3)ncc21 [MRT199665, 7-[(1S)-4-hydroxy-2,3-dihydro-1H-inden-1-yl]-5,5-dimethyl-2-{[3-(pyrrolidin-1-ylmethyl)phenyl]amino}-5,7-dihydro-6H-pyrrolo[2,3-d]pyrimidin-6-one]
CRTC3 nuclear translocation (CRTC3): translocates to the nucleus | Nurr77 mRNA [1]: increased | IL-10 mRNA [1]: increased | IL-10 secretion ([2]; LPS-stimulated macrophages): stimulate IL-10 secretion in a dose dependent manner; also recorded: increased

O=C(NCCCNc1nc(Nc2cccc(NC(=O)N3CCCC3)c2)ncc1I)c1cccs1 [BX795]
inhibition of IKK-related kinases (IKK-related kinases): potent inhibitor | inhibition of MARKs (MARK isoforms): potent inhibitor | inhibition of NUAK1 (NUAK isoforms): potent inhibitor

Cn1cc(-c2ccc(Nc3ncc(C4CC4)c(NCCCNC(=O)C4CCC4)n3)cc2)cn1 [MRT68771]
drug metabolism and pharmacokinetic properties [3]: improved drug metabolism and pharmacokinetic properties | IL-10 in serum (LPS-injected mice): elevated levels of IL-10 | pro-inflammatory cytokines in serum (LPS-injected mice): reduced levels of pro-inflammatory cytokines | inhibition of SIKs (SIK isoforms): possess SIK inhibitory activity | IL-10 secretion ([2]; LPS-stimulated macrophages): elevated levels of IL-10 | pro-inflammatory cytokine secretion ([2]; LPS-stimulated macrophages): reduced levels of pro-inflammatory cytokines

COc1ccc(N(C(=O)Oc2c(C)cccc2C)c2ccnc(Nc3ccc(N4CCN(C)CC4)cc3)n2)c(OC)c1 [KIN112]
CREB-dependent gene transcription (LKB1−/− cells; LKB1+/+ cells): enhanced | transcription of Nurr1 and Nurr77 (LKB1−/− cells; LKB1−/− cells): only be increased to a small extent | inhibition of AMPK-related kinases (AMPK-related kinases): did not inhibit any other member | inhibition of SIKs (SIK isoforms): potent inhibitor; also recorded: potently inhibited; also recorded: possess SIK inhibitory activity | IL-1ra mRNA (LPS-stimulated BMDMs; LPS-stimulated macrophages): greatly increased | mRNAs of regulatory macrophage markers (arginase-1, SPHK1, LIGHT) (LPS-stimulated BMDMs; TLR/LPS-stimulated macrophages): stimulating the production | switch of macrophage programme from classically activated towards regulatory phenotype (LPS-stimulated BMDMs; quiescent macrophages): switched their maturation programme from the classically activated route towards the regulatory phenotype | Nurr77 mRNA [1]: increased | IL-10 mRNA [1]: increased | inhibition of protein kinases with a threonine residue at the gatekeeper site [4]: potent inhibitor; also recorded: inhibited | IL-10 secretion ([2]; LPS-stimulated macrophages): stimulate IL-10 secretion in a dose dependent manner; also recorded: increased | pro-inflammatory cytokine secretion ([2]; LPS-stimulated macrophages): greatly suppressed | IL-10 secretion ([2]; in response to TLR ligands): high levels of IL-10 | IL-12p40 secretion ([2]; in response to TLR ligands): low levels of IL-12p40

B1: IL-4: Murine IL-4 from Peprotech, control in macrophage marker experiments (protein, UniProt P07750 21-140, looked up)
Interleukin-4: HIHGCDKNHLREIIGILNEVTGEGTPCTEMDVPNVLTATKNTTESELVCRASKVLRIFYLKHGKTPCLKKNSSVLMELQRLFRAFRCLDSSISCTMNESKSTSLKDFLESLKSIMQMDYS
expression of FIZZ, Ym1 or Mgl2 (wound-healing M2a markers) (LPS-stimulated BMDMs): induced the expression | expression of LIGHT or SPHK1 (LPS-stimulated BMDMs; control experiments): not LIGHT or SPHK1

Source: patent US10233157B2, “SIK inhibitor for use in a method of treating an inflammatory and/or immune disorder” (Dana-Farber Cancer Institute, Inc., priority 2012, dated 2019)
